According to patent US20230137306A1 (priority 2020, published 2023):
Where a name gives a salt, the structure may show the parent alone. Read-outs that look alike come from different tables or passages of the source.

Tests used:
[1] = tested on: membrane fusion caused by the S protein of MERS-CoV; settings: cited from earlier work
SARS-CoV-2 [2] = settings: read-out: 50% infection inhibitory concentration (IC50); Vero E6 cells, TMPRSS2 not expressed; Wang et al.; cited from earlier work
[3] = tested on: membrane fusion induced by the S protein of SARS-CoV-2 (H3255 cells); assay type: cell-based, human
[4] = Pharmacokinetics, intravenous drip in healthy adult males; settings: 20 mg intravenous drip over 90 minutes; corresponds to 61.5 ng/mL
[5] = tested on: membrane fusion induced by the S protein of SARS-CoV-2 (Calu-3 cells); assay type: cell-based, human
[6] = healthy adult males, cited from earlier work
COVID-19 = settings: randomized controlled trials; cited from earlier work
SARS-CoV = settings: cited from earlier work
[7] = tested on: membrane fusion induced by the S protein of SARS-CoV-2; assay type: cell-based, human
[8] = tested on: membrane fusion induced by the S protein of SARS-CoV; assay type: cell-based, human; settings: 293FT target cells, nafamostat 0.1 μM to 10 μM, gabexsate 1 μM to 10 μM, FIG. 6
[9] = tested on: RNA viruses such as norovirus, bunyavirus, arenavirus, flavivirus and Filovirus; settings: cited from earlier work
SARS-CoV-2 [10] = settings: human, in vivo; cited from earlier work

N=C(N)c1ccc2cc(OC(=O)c3ccc(N=C(N)N)cc3)ccc2c1 [nafamostat mesylate, 6-amidinonaphthalen-2-yl 4-guanidinobenzoate bis(methanesulfonate)]
inhibition of membrane fusion caused by the S protein of MERS-CoV [1]: effectively inhibits
IC50 (SARS-CoV-2 [2]): 22.5 µM
suppression of membrane fusion [3]: almost completely suppressed
maximum blood concentration converted to [4]: 114 nM
concentration lower than that used for the 293FT cells [5]: about 10 fold
inhibitory activity against membrane fusion, stronger than that of camostat mesylate [5]: about 10 fold
suppression of membrane fusion [5]: almost completely suppressed
maximum blood concentration of unchanged agent ([6]; 10 mg intravenous drip over 90 minutes): 16.4 ng/mL
maximum blood concentration of unchanged agent ([6]; 20 mg intravenous drip over 90 minutes): 61.5 ng/mL

CC(C)c1nc(CN(C)C(=O)N[C@H](C(=O)N[C@@H](Cc2ccccc2)C[C@H](O)[C@H](Cc2ccccc2)NC(=O)OCc2cncs2)C(C)C)cs1 [ritonavir]
improvement of the symptoms of COVID-19 (COVID-19): could not improve the symptoms
inhibitory activity against SARS-CoV (SARS-CoV): exhibited inhibitory activity

Cc1cccc(C)c1OCC(=O)N[C@@H](Cc1ccccc1)[C@@H](O)C[C@H](Cc1ccccc1)NC(=O)[C@H](C(C)C)N1CCCNC1=O [lopinavir]
improvement of the symptoms of COVID-19 (COVID-19): could not improve the symptoms
inhibitory activity against SARS-CoV (SARS-CoV): exhibited inhibitory activity

CN(C)C(=O)COC(=O)Cc1ccc(OC(=O)c2ccc(NC(=N)N)cc2)cc1 [camostat mesylate, dimethylcarbamoylmethyl 4-(4-guanidinobenzoyloxy)phenylacetate monomethanesulfonate]
inhibitory effect on membrane fusion (relative cell fusion, RL activity) [7]: membrane fusion was inhibited
inhibitory effect relative to that of nafamostat mesylate [7]: about 1/10
inhibitory effect on membrane fusion (relative cell fusion, RL activity) [8]: second highest inhibitory effect

NC(=O)c1nc(F)c[nH]c1=O [favipiravir]
antiviral activity against RNA viruses [9]: exhibits antiviral activity

CCN(CCO)CCCC(C)Nc1ccnc2cc(Cl)ccc12 (stereo not drawn) [Hydroxychloroquine]
removal of SARS-CoV-2 from the nasopharynx (SARS-CoV-2 [10]): removed at high frequency
